Laboratory results as given in patent US20250333733A1, “NOVEL TARGETS AGAINST OVARIAN CANCER” (UNIVERSITY OF PUERTO RICO, priority 2022, published 2025).

Key:
[1] = tested on: OVCAR3CIS cells; test: Colony formation assay after siRNA transfection; format: cell-based; settings: single siRNA, vs NC-siRNA
Procedure: (§1) SiRNA ON-TARGET plus SMARTpool (a mixture of 4 siRNA as a single tube) and a negative control siRNA (NC-siRNA) (Sigma-Aldrich) were used for transfection studies. CASC10, was targeted by using two siRNAs targeting different regions of the CASC10 RNA (e.g., CASC10-siRNA (1) and CASC10-siRNA (2)). OVCAR3CIS or SKOV3ip1CIS cells were seeded into 12-well plates at 3.0×10^4 cells/mL. The next day, siRNAs were mixed with HiPerfect transfection reagent (Qiagen, Valencia, CA) at a 1:2 ratio (SIRNA: HiPerfect) in serum and antibiotic-free Opti-MEM medium (Gibco) and added to the cells. After twenty-four hours the media was replaced by regular culture media, and cells were cultured and used for further experiments. To assess siRNA transfection efficiency, cells were collected 24 hours after siRNA transfection.
OVCAR3CIS cells (3.0×10^4 cells/mL) or SKOV3ip1CIS (3.0×10^4 cells/mL) were seeded into 12-well plates. Twenty-four hours later, cells were transfected with 100 nM (final concentration) of each siRNA. […] Colonies of at least 50 cells were counted using a light microscope (CKX41: Olympus, Center Valley, PA, USA) with a total magnification of 40x. […] Optical density (OD) was measured, and percentages of cell viability were calculated after blank OD subtraction. Untreated cells were assessed as 100% cell viability. […]

[2] = tested on: SKOV3IP1CIS; test: Matrigel transwell invasion assay; format: cell-based, human
Procedure: (§2) Cell invasion was measured using the Matrigel transwell method. OVCAR3CIS (3.0×10^4 cells/mL) or SKOVip1CIS (3.5×10^4 cells/mL) were seeded into 10 cm Petri dishes and transfected with siRNAs. Twenty-four hours later, serum-free matrigel (BD Biosciences CA, USA) was added onto the upper chambers of 24-well plates and incubated at 37° C. for polymerization. Transfected cells were collected and resuspended in serum-free and re-seeded onto the Matrigel-coated chambers. Medium containing 10% FBS was added to the lower area of the wells, and the plates incubated for 48 hours at 37° C. The medium was removed, and cells that invaded through the matrigel fixed and stained using ProtocolHema 3 Stain Set (Fisher Scientific MI, USA). Invaded cells were microscopically counted using a digital camera to capture images at a 20× resolution. The percentage of cell invasion was calculated using the NC-SIRNA condition as 100% cell invasion.

[3] = tested on: CASC10; test: RT-qPCR of CASC10 expression after siRNA transfection in SKOV3ip1 cells; format: cell-based, human; settings: SKOV3ip1 cells as printed
Procedure: as §1
(§3) A custom-made 384-well plate containing pre-designed forward and reverse primers was purchased from Bio-Rad (CA, USA). Total RNA was isolated from OVCAR3 and OVCAR3CIS cells using the GenElute Mammalian Total RNA Mini Kit (Millipore-Sigma, MO, USA) following the manufacturer's instructions. […] Fold-changes and cycle threshold (Ct) values were calculated by the instrument's internal software relative to OVCAR3 cells and normalized to B-actin along with controls for gDNA, PCR reaction, RT reaction, and RNA quality.

[4] = tested on: CASC10; test: RT-qPCR of CASC10 expression after siRNA transfection in OVCAR3CIS cells; format: cell-based; settings: vs NC-siRNA
Procedure: as §1, §3

[5] = tested on: SKOV3ip1CIS cells; test: Colony formation assay after siRNA transfection; format: cell-based, human; settings: SKOV3ip1CIS (FIG. 8B)
Procedure: as §1
OVCAR3CIS cells (3.0×10^4 cells/mL) or SKOV3ip1CIS (3.0×10^4 cells/mL) were seeded into 12-well plates. Twenty-four hours later, cells were transfected with 100 nM (final concentration) of each siRNA. […] Colonies of at least 50 cells were counted using a light microscope (CKX41: Olympus, Center Valley, PA, USA) with a total magnification of 40x. […] Optical density (OD) was measured, and percentages of cell viability were calculated after blank OD subtraction. Untreated cells were assessed as 100% cell viability.

[6] = tested on: OVCAR3CIS cells; test: Matrigel transwell invasion assay; format: cell-based; settings: vs NC-siRNA
Procedure: as §2

[7] = tested on: A2780CP20; settings: 72-hr incubation, Alamar Blue, read-out: IC50 cisplatin; cited from earlier work
[8] = tested on: OV90; settings: 72-hr incubation, Alamar Blue, read-out: IC50 cisplatin; cited from earlier work
[9] = tested on: OVCAR3CIS cells; test: Cell viability, Alamar blue, siRNA alone or with cisplatin; format: cell-based; settings: CIS 2.5 μM, NC-siRNA-transfected OVCAR3CIS cells
Procedure: OVCAR3CIS cells (3.0×10^4 cells/mL) or SKOV3ip1CIS (3.0×10^4 cells/mL) were seeded into 12-well plates. […] The next day, 400 cells (OVCAR3CIS) or 1,000 cells (SKOV3ip1CIS) were seeded into 6-well plates and incubated for seven days, fixed and stained with 0.5% crystal violet in methanol. Colonies of at least 50 cells were counted using a light microscope (CKX41: Olympus, Center Valley, PA, USA) with a total magnification of 40x. For cell viability assays, OVCAR3 and OVCAR3CIS (3.0×10^4 cells/mL) or SKOV3ip1and SKOV3ip1CIS (3.5×10^4 cells/mL) were seeded into 96-well plates, and 24 hours later, siRNA transfection was performed as described above. The next day, the transfection mix was replaced with cisplatin (CIS) (2.5 uM final concentration dissolved in regular cell culture media) and after forty-eight hours, the medium was removed, and Alamar blue dye (Invitrogen, Thermo Fisher Scientific, Eugene, OR, USA) was added following the manufacturer's instructions. Optical density (OD) was measured, and percentages of cell viability were calculated after blank OD subtraction. Untreated cells were assessed as 100% cell viability.

[10] = tested on: SKOV3IP1CIS; settings: 72-hr incubation, Alamar Blue, read-out: IC50 cisplatin; cited from earlier work
[11] = tested on: OVCAR3CIS; settings: 72-hr incubation, Alamar Blue, read-out: IC50 cisplatin; cited from earlier work
[12] = tested on: OVCAR3; settings: 72-hr incubation, Alamar Blue, read-out: IC50 cisplatin; cited from earlier work
[13] = tested on: SKOV3IP1; settings: 72-hr incubation, Alamar Blue, read-out: IC50 cisplatin; cited from earlier work
[14] = tested on: OV90CIS; settings: 72-hr incubation, Alamar Blue, read-out: IC50 cisplatin; cited from earlier work
[15] = tested on: A2780CIS; settings: 72-hr incubation, Alamar Blue, read-out: IC50 cisplatin; cited from earlier work

With “CASC10-siRNA (1): siRNA targeting CASC10 RNA, SEQ ID NO 1 and 2: 5′ GCUAUCUGCUUGAUCCCUU(dT)(dT) 3′ / 5′ AAGGGAUCAAGCAGAUAGO(dT)(dT) 3′ (chain 1 GCUAUCUGCUUGAUCCCUUNN; chain 2 AAGGGAUCAAGCAGAUAGCNN; 3' dTdT overhangs, chemistry not fully specified)” as the compound, how does the “reduction in the number of colonies” value [1] read?
The value was 42%.

What about the “reduction of invasion ability” value [2] of the same compound?
The value was 36%.

And the “decrease of CASC10 relative expression” value [3]?
The value was 70%.

What about the “decrease of CASC10 expression” value [4] of the same compound?
Its value is 47%.

What about the “reduction in the number of colonies” value [5] of the same compound?
The value was 81%.

And the reduction of invasiveness [6]?
Its reduction of invasiveness is 42%.

For `N.N.[Cl][Pt][Cl]` [cisplatin], which IC50 [7] is on record?
The IC50 was 20 to 30 µM.

And the IC50 [8]?
Its IC50 is 3.5 µM.

What about the cell viability [9] of the same compound?
Its cell viability is “reduced the cell viability”.

What about the IC50 [10] of the same compound?
Its IC50 is 7.3 µM.

And the IC50 [11]?
The IC50 was 7.5 µM.

What about the IC50 [12] of the same compound?
The IC50 was 2.8 µM.

And the IC50 [13]?
Its IC50 is 3.9 µM.

What about the IC50 [14] of the same compound?
Its IC50 is 7.8 µM.

What about the IC50 [15] of the same compound?
Its IC50 is 4.3 µM.
